# Data taken from the METLIN SMRT retention time set (Domingo-Almenara et al. 2019).
# Assay: gradient 5% acetonitrile 3 min, to 50% in 2 min, to 85% in 15 min, held 3 min, 100 µL/min
# Conditions: column: Zorbax Extend-C18 2.1 x 50 mm; eluents: water / acetonitrile, 0.1% formic acid
# Method in brief: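 Standards, all pure, were combined into mixtures of ~100 molecules and run at 100 μL/min on a Zorbax Extend-C18 column (2.1 × 50 mm, 1.8 μm) with water and acetonitrile, each containing 0.1% formic acid. A coupled quadrupole time-of-flight mass spectrometer operated in positive and negative ionization mode. Retention time values come from computationally picked adduct peaks, each inspected manually.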
row,Compound,RP-LC retention time [s]
1,Cc1ccc2c(Nc3ccc(Cl)cc3)c(C(=O)N3CCSCC3)cnc2n1,634
2,Cc1nn(Cc2nc(-c3ccc(NC(=O)C4CCC4)cc3)oc2C)c(C)c1C,881
3,COc1ccc(C2CCN(C(=O)c3ccoc3)CC2)cc1,853
4,COc1ccc(NC(=O)Cn2c(N)nc(C)c(C)c2=O)cc1,595
5,COc1ccc(OC)c(S(=O)(=O)N2[C@H]3CC[C@@H]2c2cnc(C)nc2C3)c1,703
6,Cn1c(=O)sc2cc(S(=O)(=O)N3CCC(C(=O)Nc4cccc(F)c4)CC3)ccc21,885
7,COCCO[C@H]1C(=O)N(C2CCN(S(=O)(=O)c3cn(C)cn3)CC2)[C@H]1c1ccncc1,556
8,COC(=O)CNC(=O)Cc1c(C)nn(-c2nc(-c3ccc(Cl)cc3)cs2)c1C,1010
9,COc1ccc(Nc2cc(C(=O)N3CCCCC3)nc3c(OC)cccc23)cc1OC,570
10,CSc1ncccc1-c1nc(-c2ccc3c(c2)ncn3CCN2CCCCC2)no1,649
11,CC(C)(C)c1ccc(-c2nc(N3CCOCC3)c3ccccc3n2)cc1,821
12,O=C(Nc1cccc(-c2ccc(N3CCOCC3)nn2)c1)Nc1ccc(F)cc1F,723
13,COc1cccc(-c2cc(N3CCN(C(=O)Nc4ccc5c(c4)OCCO5)CC3)ncn2)c1,660
14,O=S(=O)(c1ccc2c(c1)CCC2)N1CCC(CN2CCCCCC2)CC1,708
15,COc1ccc(N2CCN(c3cc(SCC(=O)Nc4cc(OC)cc(OC)c4)ncn3)CC2)cc1,814
16,CCOC(=O)c1cnn2c(SC)ncnc12,776
17,COc1ccc(Cl)cc1NC(=O)Cn1ncc2c(N3CCN(c4ccccn4)CC3)ncnc21,642
18,CC(C)CC(=O)N(C)CCc1noc(-c2ccc(C(=O)N3CCOCC3)cc2)n1,695
19,CN(C)CC(=O)N1CC(c2nc(-c3ccc(F)cc3)no2)C2(CCOCC2)C1 (stereo unspecified),572
20,O=C(CCn1nnc2cc(S(=O)(=O)N3CCCC3)ccc21)N1CCN(c2ccccn2)CC1,602
21,O=C(NCCc1ccccn1)C1CCc2nc(N3CCOCC3)ncc2C1 (stereo unspecified),645
22,CCOc1ccc(NC(=O)Cn2nc3n(c2=O)CCCCC3)cc1,690
23,Clc1cc(Cl)cc(-c2ccc(CNCc3cccnc3)o2)c1,733
24,Cc1cc(C)c2c(=O)n(Cc3nc(-c4ccccc4)oc3C)c(=O)n(Cc3ccco3)c2n1,1380
25,Cn1cc(C2=CCN(C(=O)NC(C)(C)C)CC2)c2cccnc21,604

# The remaining lines, values ahead:
row,RP-LC retention time [s],Compound
1,856,COc1ccc(-c2c(C)noc2NC(C)=O)cc1S(=O)(=O)N1CCCc2ccccc21
2,889,O=C(NCc1csc(-c2ccccc2)n1)[C@H]1CCCN1C(=O)c1cccc(Br)c1
3,688,O=C(c1cccs1)N1CCCC(c2nncn2-c2ccccc2)C1 (stereo unspecified)
4,832,Cc1cccc(C)c1NC(=O)Cn1nc2cc(-c3ccccc3)nc(C)n2c1=O
5,689,CC1CCN(c2cc(C(=O)O)c3cc(NC(=O)c4ccc(Br)cc4)ccc3n2)CC1
6,911,CCc1ccccc1NC(=O)C1CCCN(S(=O)(=O)c2c[nH]c(C(=O)N3CCCCCC3)c2)C1 (stereo unspecified)
7,877,Cc1noc(C)c1S(=O)(=O)N1CCC(C(=O)NCCc2csc(-c3ccccc3)n2)CC1
8,804,CCN1c2ccccc2C(=O)NC12CCN(C(=O)c1ccc(C)cc1)CC2
9,1310,CC(=O)c1ccc(OC(=O)c2cc3c(C)nn(-c4ccccc4)c3s2)cc1
10,762,O=C(NC1CC1)c1cn(-c2ncccc2-c2nc(-c3ccccc3)no2)cn1
11,789,Cc1ccc(NC(=O)CSc2nc(N3CCCCC3)nc3ccccc23)cc1F
